Measured values as given in US6344324B2, “Quantification of cellular injury using expression of a fluorescent protein under the control of the GADD153 promoter” (Research Development Foundation, priority 2000, dated 2002).
Several values for one entry are separate records, joined by “and”; a condition that tells them apart may be missing. Equal entries are not always repeated. Where two headings read alike, the source gives them in different places. One block for each compound: values may come before it. Starred links: 1 amine or outer side, 2 acyl side, 3 side chain; linkers in the order of their positions; H or OH if unused. Positions of bridges follow the written chain, without caps; N, C: chain ends. Non-standard residues stand in square brackets, D forms with d. Residues, ends and D or L forms follow the SMILES beside them. Chains are numbered I, II in the order given. Actinocin(9to1) = Cc1c2oc3c(C)ccc(C(=O)[*:1])c3nc-2c(C(=O)[*:2])c(N)c1=O; NMeV = CN[C@H](C(=O)O)C(C)C; Sar = CNCC(=O)O

Key:
[1] = tested on: GADD153 promoter activity in T10b45 cells
Description: T10b45 cells were harvested 4 days following exposure to the injurious agent, washed once and resuspended in PBS. Cytometric analysis was performed using a Becton Dickinson (Mountain View, Calif.) FACScan equipped with an argon ion laser tuned to 488 nm to excite EGFP, and a 515/545 bandpass filter to monitor the green fluorescence emitted by EGFP. The acquired data were analyzed with the CELLQuest program. Twenty thousand events were collected for each sample. An analytical gate was set such that less than 0.2% of the untreated cells exceeded the gate. The relative fold induction was calculated by dividing the percent of treated cells in the gated region by that of untreated cells harvested at same time.
Three hundred thousand T10b45 cells were seeded into 60 mm tissue culture dishes and treated 24 h later so that all experiments were performed with cells in the logarithmic phase of growth. The chemical agents were added directly to the tissue culture media. At the indicated times, the medium was removed and the cells were washed twice with serum-free medium and then incubated for 4 days in fresh drug-free medium at 37° C. following which they were subjected to flow cytometric analysis.

T10b45 cells = assay: Clonogenic (colony-forming) assay; format: cell-based, human
[2] = in this strain (BALB/c nu/nu mice); cited from earlier work
T10b45 xenografts = assay: EGFP expression in T10b45 xenografts in vivo; design: species or system BALB/c nu/nu mice; details: for tumor cells expressing EGFP: tumors harvested 4 days later, ± SD
GADD153 mRNA = details: UMSCC10b xenografts in nude mice, 50 mg/kg, 24 hr post-treatment, relative to untreated mice; ± SD; cited from earlier work
[3] = 50 μM, 1 h exposure, GFP 4 days after treatment, relative to untreated control
[4] = T10b45 cells, 4 days after the insult, conditions of maximal activation (Table 1)
[5] = quotient of fold increase in EGFP-expressing cells and Pt in DNA at 10 × IC50, mean ± SD, n = 3
[6] = colony-forming assay, 1 hour drug exposure, colonies scored after 14 days, mean ± SD, n = 3
[7] = 50 nM, 4 h exposure, GFP 4 days after treatment, relative to untreated control
[8] = 500 μM, 1 h exposure, GFP 4 days after treatment, relative to untreated control

GFP fold induction at 10 × IC50 [1]: 120 ± 7.8 | IC50 (T10b45 cells; [6]): 3.3 ± 0.17 µM
SMILES: N[C@@H]1CCCC[C@H]1N.[Cl][Pt+2]([Cl])([Cl])[Cl] [Tetraplatin, tetraplatin]
Induction Ratio [1, 3]: 143 | activation of EGFP expression (in words) [1, 4]: strongly activated | Relative EGFP activation potency at 10 × IC50 [1, 5]: 10482.7 ± 516.9 fold induction/ng Pt/ug DNA

SMILES: O=NN(CCCl)C(=O)NCCCl [BCNU]
Induction Ratio [1]: 4 | activation of EGFP expression (in words) [1]: failed to produce significant activation

SMILES: C[C@@]1(CO)[C@H](O)CC[C@@]2(C)[C@H]1CC[C@H]1C[C@@H]3C[C@@]12CC[C@]3(O)CO [Aphidicolin, aphidicolin]
Induction Ratio ([1]; 20 μM, 24 h exposure, GFP 4 days after treatment, relative to untreated control): 2.5 | activation of EGFP expression (in words) [1, 4]: relatively impotent

SMILES: COc1cc([C@@H]2c3cc4c(cc3[C@@H](O[C@@H]3O[C@@H]5CO[C@@H](C)O[C@H]5[C@H](O)[C@H]3O)[C@H]3COC(=O)[C@H]23)OCO4)cc(OC)c1O [Etoposide, etoposide]
Induction Ratio ([1]; 5 μM, 4 h exposure, GFP 4 days after treatment, relative to untreated control): 4 | activation of EGFP expression (in words) [1, 4]: relatively impotent

SMILES: N.N.O=C([O-])C1(C(=O)[O-])CCC1.[Pt+2] [Carboplatin, carboplatin]
GFP fold induction at 10 × IC50 [1]: 23 ± 2.6 | Induction Ratio ([1]; 200 μM, 42 h exposure (so in the source), GFP 4 days after treatment, relative to untreated control): 33 | activation of EGFP expression (in words) [1, 4]: strongly activated | Relative EGFP activation potency at 10 × IC50 [1, 5]: 750.4 ± 22.1 fold induction/ng Pt/ug DNA | IC50 (T10b45 cells; [6]): 10.7 ± 0.83 µM

SMILES: O=c1[nH]cc(F)c(=O)[nH]1 [5-Fluorouracil]
Induction Ratio ([1]; 50 μM, 4 h exposure, GFP 4 days after treatment, % GFP expressing cells relative to untreated control): 3.0 | activation of EGFP expression (in words) [1, 4]: relatively impotent

SMILES: COc1cccc2c1C(=O)c1c(O)c3c(c(O)c1C2=O)C[C@@](O)(C(=O)CO)C[C@@H]3O[C@H]1C[C@H](N)[C@H](O)[C@H](C)O1 [Doxorubicin, doxorubicin]
Induction Ratio ([1]; 100 nM, 4 h exposure, GFP 4 days after treatment, relative to untreated control): 2.4 | activation of EGFP expression (in words) [1, 4]: relatively impotent

SMILES: Nc1ccn([C@@H]2O[C@H](CO)[C@@H](O)C2(F)F)c(=O)n1 [Gemcitabine, gemcitabine]
Induction Ratio [1, 7]: 0.6 | activation of EGFP expression (in words) [1, 4]: relatively impotent

SMILES: O=C1[O][Pt]2([NH][C@@H]3CCCC[C@H]3[NH]2)[O]C1=O [Oxaliplatin]
GFP fold induction at 10 × IC50 [1]: 100 ± 5.3 | Induction Ratio [1]: 105 | Relative EGFP activation potency at 10 × IC50 [1]: 5496.0 ± 655.6 fold induction/ng Pt/ug DNA | activation of EGFP expression (in words) [1]: strongly activated | IC50 (T10b45 cells): 5.1 ± 0.29 µM

SMILES: N.N.[Cl][Pt][Cl] [Cisplatin]
LD10 [2]: 12 mg/kg | GFP fold induction at 10 × IC50 [1]: 38 ± 3.2 | Relative EGFP activation potency at 10 × IC50 [1]: 825.0 ± 29.4 fold induction/ng Pt/ug DNA | Induction Ratio [1, 3]: 42 | activation of EGFP expression (in words) [1, 4]: strongly activated | IC50 (T10b45 cells; [6]): 4.2 ± 0.03 µM | fold increase in the fraction of EGFP-expressing cells (T10b45 xenografts; 5 mg/kg single i.p., 4 days, relative to untreated tumors): 3.8 fold | fold increase in the fraction of cells expressing EGFP (T10b45 xenografts; 15 mg/kg single i.p., 4 days, relative to untreated tumors): 29 fold and 29.2±6.2 fold | tumor cells expressing EGFP (T10b45 xenografts; cisplatin 5 mg/kg single i.p.): 0.49±0.5% | tumor cells expressing EGFP (T10b45 xenografts; cisplatin 15 mg/kg single i.p., untreated 0.13±0.02 %): 3.8±0.8% | GADD153 mRNA level increase (GADD153 mRNA): 3.0±0.4 fold

SMILES: CC(=O)O[C@H]1C(=O)[C@@]2(C)[C@H]([C@H](OC(=O)c3ccccc3)[C@]3(O)C[C@H](OC(=O)[C@H](O)[C@@H](NC(=O)c4ccccc4)c4ccccc4)C(C)=C1C3(C)C)[C@]1(OC(C)=O)CO[C@@H]1C[C@@H]2O [Paclitaxel, paclitaxel]
Induction Ratio ([1]; 70 nM, 4 h exposure, GFP 4 days after treatment, relative to untreated control): 2.8 | activation of EGFP expression (in words) [1, 4]: relatively impotent

SMILES: Cc1c2oc3c(C)ccc(C(=O)N[C@@H]4C(=O)N[C@H](C(C)C)C(=O)N5CCC[C@H]5C(=O)N(C)CC(=O)N(C)[C@@H](C(C)C)C(=O)O[C@@H]4C)c3nc-2c(C(=O)N[C@@H]2C(=O)N[C@H](C(C)C)C(=O)N3CCC[C@H]3C(=O)N(C)CC(=O)N(C)[C@@H](C(C)C)C(=O)O[C@@H]2C)c(N)c1=O [Actinomycin D, actinomycin D] (I: T[dV]P[Sar][NMeV] / II: T[dV]P[Sar][NMeV]; ester I:1-I:C, II:1-II:C; linker I:N-II:N via Actinocin(9to1))
Induction Ratio [1]: 7.6 | activation of EGFP expression (in words) [1]: strongly activated

SMILES: Cc1nc2ccc(CN(C)c3ccc(C(=O)N[C@@H](CCC(=O)O)C(=O)O)s3)cc2c(=O)[nH]1 [Raltitrexed]
Induction Ratio [1, 7]: 0.6 | activation of EGFP expression (in words) [1, 4]: relatively impotent

GFP fold induction at 10 × IC50 [1]: 11 ± 3.2 | Relative EGFP activation potency at 10 × IC50 [1, 5]: 70.6 ± 20.5 fold induction/ng Pt/ug DNA | IC50 (T10b45 cells; [6]): 4.5 ± 0.35 µM
SMILES: CC(=O)[O][Pt]([NH2])([Cl])([Cl])([NH]C1CCCCC1)[O]C(C)=O [JM216]
Induction Ratio ([1]; 150 μM, 1 h exposure, GFP 4 days after treatment, relative to untreated control): 43 | activation of EGFP expression (in words) [1, 4]: strongly activated

SMILES: CC[C@@]1(O)C(=O)OCc2c1cc1n(c2=O)Cc2cc3c(CN(C)C)c(O)ccc3nc2-1 [Topotecan]
Induction Ratio ([1]; 20 nM, 4 h exposure, GFP 4 days after treatment, relative to untreated control): 1.3 | activation of EGFP expression (in words) [1, 4]: relatively impotent

SMILES: OO [Hydrogen peroxide, hydrogen peroxide]
Induction Ratio [1, 8]: 13 | activation of EGFP expression (in words) [1, 4]: strongly activated

GFP fold induction at 10 × IC50 [1]: 10 ± 2.0 | Relative EGFP activation potency at 10 × IC50 [1, 5]: 41.3 ± 8.5 fold induction/ng Pt/ug DNA | IC50 (T10b45 cells; [6]): 379 ± 31.6 µM
SMILES: N.N.[Cl][Pt+2][Cl] [Transplatin, transplatin]
Induction Ratio [1, 8]: 1 | activation of EGFP expression (in words) [1, 4]: failed to produce significant activation
